The structures appear in SMILES notation.

The subject of the first experiment is algae (Chlamydomonas, Scenedesumus, Actinastrum, Ulothrix, Oscillatoria, Spirogyra, Pleurotaenium, Stichoccus and Chlorella). The experiment in a line: Hydroponic Culture Test No. 1: algae disks immersed in test nutrient solutions, visual examination of algae growth. The settings on record: Concentration 0.1 mg/liter; 7 days, 250° C., continuous light 2500 lux. Set-up: key: +: Algae growth was clearly observed; −: Algae growth was not observed. The experiment is classed as cell-based, algae collected from hydroponic culture of tomato plants. On the procedure: Algae which grew in hydroponic culture of tomato plants inside a greenhouse provided with a hydroponic culture system were collected. A control nutrient solution was prepared by dissolving in 1 liter of water 0.625 g, 0.417 g, 0.042 g and 0.029 g respectively of Otsuka House Nos. 1, 2, 3 and 5 (tradenames of products by Otsuka Chemical Co., Ltd.) Identified in the collected algae were the following nine kinds: Chlamydomonas, Scenedesumus, Actinastrum, Ulothrix, Oscillatoria, Spirogyra, Pleurotaenium, Stichoccus and Chlorella.
The algae thus collected were filtered by using a filtering net with opening diameter of 53 μm. After the filtrate was buried inside the aforementioned control nutrient solution containing agar by 0.8 weight %, disks were cut out therefrom by means of a cork borer. Test nutrient solutions which were individually prepared by adding indoleacetic acid, 3-indole propionic acid or 3-(3-indolyl) butyric acid shown by Formula 1 at different concentrations to the control nutrient solution, and after these disks were immersed individually in these test nutrient solutions for 7 days at […] under a continuous illumination of light at 2500 lux, the growth of algae was visually examined.
In the case of `O=C(O)Cc1c[nH]c2ccccc12` [IAA, indoleacetic acid], the “growth of algae (visual)” value is “+”.
Take `CC(CC(=O)O)c1c[nH]c2ccccc12` (stereo not drawn) [IBA, 3-(3-indolyl) butyric acid]: the “growth of algae (visual)” value was “+”.
Same read-out and setting: as for `O=C(O)CCc1c[nH]c2ccccc12` [IPA, 3-indole propionic acid], the entry is “+”.

The experiment is the same for the next values; noted with them: Concentration 0.5 mg/liter; 7 days, 250° C., continuous light 2500 lux.
In the case of `O=C(O)Cc1c[nH]c2ccccc12` [IAA, indoleacetic acid], the “growth of algae (visual)” value is recorded as “+”.
For the compound `CC(CC(=O)O)c1c[nH]c2ccccc12` (stereo not drawn) [IBA, 3-(3-indolyl) butyric acid], the “growth of algae (visual)” value is “+”.
On the same count and under the same terms, with `O=C(O)CCc1c[nH]c2ccccc12` [IPA, 3-indole propionic acid] the entry was “+”.

Still in this experiment, the particulars now being: Concentration 1 mg/liter; 7 days, 250° C., continuous light 2500 lux.
For `O=C(O)Cc1c[nH]c2ccccc12` [IAA, indoleacetic acid], the “growth of algae (visual)” value is “+”.
Take `CC(CC(=O)O)c1c[nH]c2ccccc12` (stereo not drawn) [IBA, 3-(3-indolyl) butyric acid]: the “growth of algae (visual)” value is on record as “+”.
For the compound `O=C(O)CCc1c[nH]c2ccccc12` [IPA, 3-indole propionic acid], the “growth of algae (visual)” value was “+”.

Staying with this experiment, now noted: Concentration 5 mg/liter; 7 days, 250° C., continuous light 2500 lux.
Take `O=C(O)Cc1c[nH]c2ccccc12` [IAA, indoleacetic acid]: the “growth of algae (visual)” value is given as “+”.
Take `CC(CC(=O)O)c1c[nH]c2ccccc12` (stereo not drawn) [IBA, 3-(3-indolyl) butyric acid]: the “growth of algae (visual)” value is listed as “+”.
In the case of `O=C(O)CCc1c[nH]c2ccccc12` [IPA, 3-indole propionic acid], the “growth of algae (visual)” value is “+”.

Still in this experiment, the particulars now being: Concentration 10 mg/liter; 7 days, 250° C., continuous light 2500 lux.
As for `O=C(O)Cc1c[nH]c2ccccc12` [IAA, indoleacetic acid], the “growth of algae (visual)” value is given as “+”.
As to `CC(CC(=O)O)c1c[nH]c2ccccc12` (stereo not drawn) [IBA, 3-(3-indolyl) butyric acid], the “growth of algae (visual)” value is “−”.
On to `O=C(O)CCc1c[nH]c2ccccc12` [IPA, 3-indole propionic acid], for which the “growth of algae (visual)” value was “+”.

The experiment is the same for the next values; noted with them: Concentration 25 mg/liter; 7 days, 250° C., continuous light 2500 lux.
Take `O=C(O)Cc1c[nH]c2ccccc12` [IAA, indoleacetic acid]: the “growth of algae (visual)” value is “+”.
Consider `CC(CC(=O)O)c1c[nH]c2ccccc12` (stereo not drawn) [IBA, 3-(3-indolyl) butyric acid], for which the “growth of algae (visual)” value is given as “−”.
In the case of `O=C(O)CCc1c[nH]c2ccccc12` [IPA, 3-indole propionic acid], the “growth of algae (visual)” value is recorded as “+”.

The same experiment, now with this note: Concentration 50 mg/liter; 7 days, 250° C., continuous light 2500 lux.
Turning to `O=C(O)Cc1c[nH]c2ccccc12` [IAA, indoleacetic acid], the “growth of algae (visual)” value is “+”.
As for `CC(CC(=O)O)c1c[nH]c2ccccc12` (stereo not drawn) [IBA, 3-(3-indolyl) butyric acid], the “growth of algae (visual)” value is recorded as “−”.
Turning to `O=C(O)CCc1c[nH]c2ccccc12` [IPA, 3-indole propionic acid], the “growth of algae (visual)” value was “+”.
